In US7098334B2 (Industrial Research Limited, priority 2002, dated 2006):
Like-named read-outs stand apart in the source and are kept apart here.

Legend:
[1] = target: T1, MTAP activity in mouse blood (Mus musculus, UniProt Q9CQ65); experiment: MTAP activity in blood of treated mice; format: in vivo; conditions: interperitoneal injection of 10 micromoles; blood sampled 30 min following injection
T1 construct: from tissue; host or cells: mouse blood
T1 sequence (Q9CQ65 1-283): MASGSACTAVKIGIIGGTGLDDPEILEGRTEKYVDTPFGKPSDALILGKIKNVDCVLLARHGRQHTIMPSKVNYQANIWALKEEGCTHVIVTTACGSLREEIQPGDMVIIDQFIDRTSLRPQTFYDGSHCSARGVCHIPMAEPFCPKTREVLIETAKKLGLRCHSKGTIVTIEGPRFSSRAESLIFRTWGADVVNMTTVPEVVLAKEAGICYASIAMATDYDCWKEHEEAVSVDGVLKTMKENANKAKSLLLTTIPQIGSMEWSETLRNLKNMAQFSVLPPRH
Protocol: 5′-Methylthio-Immucillin-A (5′-methylthio-ImmA) (10 micromoles) was administered to mice orally, by interperitoneal injection or by intravenous injection. Following 30 to 60 min, blood was collected or mice were sacrificed and the liver removed for tissue analysis. MTAP activity in mouse blood was measured by the conversion of radioactive MTA to radioactive 5-methylthio-α-D-ribose 1-phosphate (MTR-1P). The assay mixture contained 50 mM phosphate buffer, 1 mM dithiothreitol, 26 μM [5′-^14C]MTA with specific radioactivity of 2 μCi/μmole, 0.5% triton X-100, and the desired amount of tissue sample, in a total volume of 100 μL. Reactions were stopped at various times by the addition of perchloric acid to decrease the pH to 2.0. The protein precipitate was removed by centrifugation, and the supernatant was neutralized to near pH 7 before being placed on a charcoal column. The column was eluted with buffer near pH 7. The product MTR-1P elutes, while unreacted [5′-^14C]MTA remains on the column. The amount of MTAP activity from control and treated mice is compared.

[2] = target: T2, human MTAP (Homo sapiens, UniProt Q13126); experiment: Enzyme inhibition assay, MTAP (slow-onset inhibition constants); format: biochemical
T2 construct: inferred from pQE32 vector and Ni-NTA purification) (N); made in house; host or cells: E. coli
T2 sequence (Q13126 1-283): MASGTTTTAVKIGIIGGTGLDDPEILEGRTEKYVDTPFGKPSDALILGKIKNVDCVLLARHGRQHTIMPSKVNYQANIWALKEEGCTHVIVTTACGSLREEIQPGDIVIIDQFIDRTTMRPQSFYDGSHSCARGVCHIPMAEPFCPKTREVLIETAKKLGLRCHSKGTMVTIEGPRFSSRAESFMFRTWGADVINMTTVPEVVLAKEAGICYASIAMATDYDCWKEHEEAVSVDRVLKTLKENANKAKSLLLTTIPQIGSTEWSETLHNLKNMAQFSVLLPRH
Protocol: Ki as shown in Tables 1 and 2 is the initial inhibition constant formed by the enzyme-inhibitor complex, and Ki* is the equilibrium dissociation constant for inhibition that is observed following a period of slow-onset, tight binding inhibition. Ki* is the biologically effective constant.
Enzyme assays were conducted to assess the effectiveness of selected compounds of the invention as inhibitors of MTAP and MTAN.
Enzymes.—The human MTAP protein was cloned into pQE32 expression vector and transformed into E. coli. Induction cultures containing 1 L (25 mg/L) and 50 μg/mL ampicillin were inoculated with 1 mL overnight grown starter-culture and incubated at 37° C. When the cultures reached an OD of ≈0.6 they were induced with 1.5 mM IPTG for 6 to 8 hours. Cells were harvested by centrifugation at 5000 rpm for 30 min, and subsequently resuspended in a buffer (20 mM imidazole, 300 mM NaCl, 0.2 mM phenylmethylsulfonyl fluoride (PMSF), 100 mM Tris, pH 8.0) containing a small amount of lysozyme to weaken the cell membrane. Cells were lysed with a French press. The insoluble material was removed by high-speed centrifugation. The cell extract was further clarified with 35% ammonium sulfate precipitation followed by high-speed centrifugation. The clarified cell extract was then applied to a 5 mL Ni-NTA column that had previously been equilibrated with the binding buffer. Further chromatographic steps were carried out by FPLC. The column was washed with 10 volumes of 50 mM imidazole, 300 mM NaCl, and 100 mM Tris, pH 8.0, and the protein was eluted with a buffer containing a 50–250 mM gradient of imidazole, 300 mM NaCl, 1 M Tris, pH 8.0. The purity of the protein was verified by running polyacrylamide gel followed by Coomassie staining. The protein was subsequently dialyzed in 50 mM NaCl, 2 mM dithiothreitol (DTT) and 50 mM Tris, pH 7.4, and was concentrated to 10 mg/mL. The purified protein was stored at −80° C. in 100 μL to 150 μL aliquots.
Inhibitors.—Inhibitor concentrations were determined by the UV absorbance spectrum using the published millimolar extinction coefficients for 9-dazadenine of 8.5 at 275 nm at pH 7.0.
Assays.—The direct spectrophotometric assay for the conversion of MTA into adenine was measured as the decrease in absorbance at 274 nm. At 274 nm, Δε between MTA and adenine is at a maximum and produces a spectral change of 1.6 absorbance units/cm/mM (DeWolf, W. E. Jr., Fullin, F. A., and Schramm, V. L. (1979) J. Biol. Chem. 254, 10868–10875)
This concentration corresponds to an OD of 0.7–1.1 at 274 nM. The formation of product was monitored as a decrease in absorbance at 274 nm. Conditions for Ki* determination used high concentrations of substrate. Two controls, one having no inhibitor and the other no enzyme were included in the experiment. The Ki values MTAP for the various compounds were calculated by fitting in the ratio of initial rates in the presence of inhibitor to without any inhibitor versus the inhibitor concentration, for the known Km and substrate concentration into the following expression.
Where Vo′ is the rate in the presence of inhibitor • Vo rate in the absence of inhibitor • [I] inhibitor concentration • And [S] is the substrate concentration
And the Ki* was calculated by fitting to the following expression
Where Vs′ is the steady-state rate following attainment of equilibrium in the presence inhibitor, and Vs is the steady-state rate in the control having no inhibitor. Both these equations are valid for competitive type inhibition.

CSC[C@H]1N[C@@H](c2c[nH]c3c(N)ncnc23)C(O)[C@H]1O (some centres unmarked) [5′-methylthio-ImmA]
inhibition of MTAP in mouse blood compared to control blood [1]: > 90% | Ki ([2]; MTA at 150 μM, Km=2.5 μM, read-out: Ki (FIG. 1, inhibition of MTAP at varying concentrations)): 0.107 nM | Ki* ([2]; MTAP, equilibrium dissociation constant after slow-onset, tight binding inhibition): in the pM range | Ki ([2]; MTAP, equilibrium dissociation constant after slow-onset, tight binding inhibition, read-out: Ki*): 0.09 ± 0.018 nM | Ki ([2]; MTAP, initial inhibition constant, read-out: Ki): 5 ± 0.5 nM
